Reference: patent publication US12599609B2, “Methods of treating fuchs endothelial corneal dystrophy after descemetorhexis” (KOWA COMPANY, LTD., priority 2021, dated 2026)
Where a name gives a salt, the structure may show the parent alone.

Test system: patients with FECD after descemetorhexis
Assay: Phase 2 study of ripasudil eye drops after descemetorhexis in patients with Fuchs endothelial corneal dystrophy
Format: in vivo, human
Details: BID and QID dosing of a 0.4% formulation, topical to the eye
Source text: As a condition of participating in the clinical study described in Example 3, each patient will undergo descemetorhexis of a study eye selected by the investigator for surgery. A digital photo of the study eye is taken immediately before and immediately after the descemetorhexis. The investigator will perform descemetorhexis to remove central confluent guttae, removing an area of Descemet membrane with a diameter of 4.5 to 5.5 mm. The longest diameter and the shortest diameter must be recorded. Detailed procedures for performing descemetorhexis are described in several literature references, including, for example, Macsai M S, Shiloach M. Cornea. 2019; 38:529-534, and Moloney G, Congote D G, Hirnschall N, et al. Cornea. 2020 Jul. 31. doi: 10.1097/ICO.0000000000002437. Online ahead of print.
Recommended post-descemetorhexis concomitant therapy consists of broad spectrum antibiotic (0.5% moxifloxacin hydrochloride) instilled at least once daily for 1 week and glucocorticoid (1% prednisolone acetate) instilled 3 times daily for the first 7 days, followed by once daily for the next 7 days, and terminated thereafter. The investigator may add antibiotic and glucocorticoid dosing after this 14 days as rescue therapy if the investigator judges it necessary. When more than 1 different eye drop is administered (including study drug), the study drug must be administered first, followed by any non-study eye drop (after at least 5 minutes have passed).
In this U.S. FDA approved study, the primary objective is to investigate the effect of K-321 dosed for 12 weeks on central ECD in patients with FECD after descemetorhexis. […]

C[C@H]1CNCCCN1S(=O)(=O)c1cccc2cncc(F)c12 [ripasudil hydrochloride, Ripasudil]
demonstrated particular benefit: improving best corrected visual acuity (BCVA) | improving central corneal endothelial corneal density (ECD) | reduction of corneal edema
